Tests used:
SpCas9 [1] = target: T1, SpCas9 (Streptococcus pyogenes, UniProt Q99ZW2); experiment: eGFP-disruption assay; format: cell-based
SpCas9 [2] = target: T1, SpCas9; experiment: in vitro DNA cleavage assay; format: biochemical

T1 sequence (Q99ZW2 whole entry): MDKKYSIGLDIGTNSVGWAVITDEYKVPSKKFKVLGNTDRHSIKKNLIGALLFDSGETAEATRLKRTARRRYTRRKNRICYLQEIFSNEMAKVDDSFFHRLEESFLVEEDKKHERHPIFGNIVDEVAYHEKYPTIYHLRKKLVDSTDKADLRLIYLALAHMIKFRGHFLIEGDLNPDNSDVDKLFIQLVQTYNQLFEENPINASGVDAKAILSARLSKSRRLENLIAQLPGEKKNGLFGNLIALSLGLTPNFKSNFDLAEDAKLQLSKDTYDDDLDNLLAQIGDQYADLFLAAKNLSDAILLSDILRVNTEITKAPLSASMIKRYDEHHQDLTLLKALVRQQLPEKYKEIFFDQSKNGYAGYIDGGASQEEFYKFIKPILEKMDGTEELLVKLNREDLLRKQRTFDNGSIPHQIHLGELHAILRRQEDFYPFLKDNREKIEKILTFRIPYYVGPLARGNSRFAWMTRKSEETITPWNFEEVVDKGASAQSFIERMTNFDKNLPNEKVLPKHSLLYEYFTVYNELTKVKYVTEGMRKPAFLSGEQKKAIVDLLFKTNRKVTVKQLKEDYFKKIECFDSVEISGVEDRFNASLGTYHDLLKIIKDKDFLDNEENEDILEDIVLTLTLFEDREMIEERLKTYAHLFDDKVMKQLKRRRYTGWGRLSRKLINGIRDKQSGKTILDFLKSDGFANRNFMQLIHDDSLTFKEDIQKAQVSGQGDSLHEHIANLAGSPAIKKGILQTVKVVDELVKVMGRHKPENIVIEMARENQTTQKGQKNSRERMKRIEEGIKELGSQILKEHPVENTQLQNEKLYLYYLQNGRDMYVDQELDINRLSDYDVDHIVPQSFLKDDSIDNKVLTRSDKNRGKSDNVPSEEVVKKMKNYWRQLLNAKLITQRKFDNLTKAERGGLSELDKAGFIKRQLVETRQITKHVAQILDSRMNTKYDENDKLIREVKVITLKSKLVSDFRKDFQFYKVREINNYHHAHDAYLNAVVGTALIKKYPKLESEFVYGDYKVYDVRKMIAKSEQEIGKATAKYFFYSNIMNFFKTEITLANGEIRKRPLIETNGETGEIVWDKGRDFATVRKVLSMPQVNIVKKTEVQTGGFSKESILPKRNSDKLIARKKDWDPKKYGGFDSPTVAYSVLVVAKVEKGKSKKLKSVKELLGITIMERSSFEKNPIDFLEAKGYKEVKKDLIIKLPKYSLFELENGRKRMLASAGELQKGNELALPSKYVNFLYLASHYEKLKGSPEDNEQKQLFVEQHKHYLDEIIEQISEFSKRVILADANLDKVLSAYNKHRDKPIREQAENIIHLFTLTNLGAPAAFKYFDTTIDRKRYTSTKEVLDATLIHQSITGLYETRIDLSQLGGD

Structure (SMILES)	EC50 (SpCas9 [1])	IC50 (SpCas9 [2])
COc1cccc(-c2ccc3c(c2)[C@H]2[C@H](CCN2C(=O)Cc2ccncc2)[C@H](CO)N3C)c1 [BRD3433]	9.3 µM	–
Cc1ccc(S(=O)(=O)N2CC[C@@H]3[C@H](CO)Nc4ccc(-c5ccccc5F)cc4[C@@H]32)cc1 [BRD0539]	–	22 µM

From publication PMC7182439 (Cell, 2019)
